The values below come from PubChem BioAssay AID1259408 (Genetic Toxicology Data Bank (GENE-TOX), 2018).

For the data set, the system named is GENE-TOX genotoxicity assays, various organisms and cells. Put plainly: GENE-TOX mutagenicity studies. Particulars: for call: Assay Type: In vivo carcinogenicity studies, Assay Code: CCGT.
The mark [1] stands for this setting: Species/Cell Type: Chinese hamster lung (V79) cells, Assay Type: Forward gene mutation at the HPRT or ouabain locus, Assay Code: V79+, Evaluation Type: Evaluation A (Pre-1980).
Where [2] appears, read: Species/Cell Type: Nonhuman, Evaluation Type: Evaluation A (Pre-1980).
The mark [3] stands for this setting: Species/Cell Type: Saccharomyces cerevisiae, Assay Type: Mitotic recombination or gene conversion, Assay Code: YEC+, Evaluation Type: Evaluation A (Pre-1980).
The mark [4] stands for this setting: Species/Cell Type: Salmonella typhimurium (one or more of the five standard strains: TA98, TA100, TA1535, TA1537, and TA1538), Assay Type: Histidine reverse gene mutation, Ames assay, Assay Code: SAL+, Evaluation Type: Evaluation A (Pre-1980).
[5] abbreviates: Species/Cell Type: Nonhuman, Assay Type: Sister-chromatid exchange (SCE) in vitro, Assay Code: SC2+D, Dose Response: With dose response, Evaluation Type: Evaluation B (Post-1980).
Where [6] appears, read: Species/Cell Type: Human lymphocytes, Assay Type: Sister-chromatid exchange (SCE) in vitro, Assay Code: SCLT, Evaluation Type: Evaluation B (Post-1980).

Each structure is given as a SMILES string. The source made the active and inactive calls. How the calls were made is not given here.

In the case of `O=C(O)COc1ccc(Cl)cc1Cl`, the mutagenic call by setting is: (Species/Cell Type: Allium cepa, Assay Type: Chromosome aberrations, Assay Code: ALC+, Evaluation Type: Evaluation A (Pre-1980)) “active; positive”; (Species/Cell Type: Bacillus subtilis (H17 vs M45), Assay Type: Rec-assay, spot test, DNA effects (bacterial DNA repair), Assay Code: REW+, Evaluation Type: Evaluation A (Pre-1980)) “active; positive”; under setting [1], “active; positive”; (Species/Cell Type: Drosophila melanogaster, Assay Type: Aneuploidy, sex chromosome gain, chromosome aberrations, Assay Code: DAG-M-F, Evaluation Type: Evaluation A (Pre-1980)) “inactive; negative”; (Species/Cell Type: Drosophila melanogaster, Assay Type: Aneuploidy, whole sex chromosome loss, chromosome aberrations, Assay Code: DAC-M-F, Evaluation Type: Evaluation A (Pre-1980)) “inactive; negative”; (Species/Cell Type: Drosophila melanogaster, Assay Type: Sex-linked recessive lethal gene mutation, Assay Code: SRL-, Evaluation Type: Evaluation A (Pre-1980)) “inactive; negative”. For the same compound, the mutagenic call is, setting by setting: (Species/Cell Type: Escherichia coli WP2 UVRA, Assay Type: Tryptophan reverse gene mutation, Assay Code: WPU-*, Activation: With metabolic activation, Evaluation Type: Evaluation A (Pre-1980)) “inactive; negative”; (Species/Cell Type: Escherichia coli polA (W3119 vs P3478), Assay Type: Rec-assay, DNA effects (bacterial DNA repair), Assay Code: RE1+, Evaluation Type: Evaluation A (Pre-1980)) “active; positive”; (Species/Cell Type: Human diploid fibroblasts, Assay Type: Unscheduled DNA synthesis (UDS) in vitro, DNA effects, Assay Code: UDH-, Evaluation Type: Evaluation A (Pre-1980)) “inactive; negative”; (Species/Cell Type: Human lymphocytes or leukocytes, Assay Type: Chromosome aberrations in vitro, Assay Code: CY7+, Evaluation Type: Evaluation A (Pre-1980)) “active; positive”; (Species/Cell Type: Human lymphocytes, Assay Type: Sister-chromatid exchange (SCE) in vitro, Assay Code: SCL+D, Dose Response: With dose response, Evaluation Type: Evaluation B (Post-1980)) “active; positive”; (Species/Cell Type: Human, Assay Type: Sister-chromatid exchange (SCE) in vitro, Assay Code: SC1+D, Dose Response: With dose response, Evaluation Type: Evaluation B (Post-1980)) “active; positive”. Moreover, the mutagenic call was “no conclusion” (Species/Cell Type: Mammalian polychromatic erythrocytes, Assay Type: Micronucleus test, chromosome aberrations, Assay Code: MNTT, Evaluation Type: Evaluation A (Pre-1980)); “active; positive” (Species/Cell Type: Nonhuman bone marrow, Assay Type: Chromosome aberrations, in vivo, Assay Code: CY#+, Evaluation Type: Evaluation A (Pre-1980)); “active; positive” under setting [3]; “active; positive” (Species/Cell Type: Saccharomyces cerevisiae, Assay Type: Mitotic recombination or gene conversion, Assay Code: YEH+, Evaluation Type: Evaluation A (Pre-1980)); “inactive; negative” (Species/Cell Type: Saccharomyces cerevisiae, Assay Type: Mitotic recombination or gene conversion, Assay Code: YEH-, Evaluation Type: Evaluation A (Pre-1980)); “inactive; negative” (Species/Cell Type: Salmonella typhimurium (one or more of the five standard strains: TA98, TA100, TA1535, TA1537, and TA1538), Assay Type: Histidine reverse gene mutation, Ames assay, Assay Code: SAL-, Evaluation Type: Evaluation A (Pre-1980)). Moreover, the mutagenic call was “no conclusion” (Species/Cell Type: Salmonella typhimurium (one or more of the five standard strains: TA98, TA100, TA1535, TA1537, and TA1538), Assay Type: Histidine reverse gene mutation, Ames assay, Assay Code: SALT, Evaluation Type: Evaluation A (Pre-1980)); “inactive; negative” (Species/Cell Type: Salmonella typhimurium, Saccharomyces cerevisiae, Assay Type: Forward and reverse gene mutation, mitotic recombination and gene conversion, DNA effects, host-mediated assay, Assay Code: HM3-, Evaluation Type: Evaluation A (Pre-1980)); “active; positive” (Species/Cell Type: Vicia faba, Assay Type: Chromosome aberrations, Assay Code: VIC+, Evaluation Type: Evaluation A (Pre-1980)). In addition, the call under setting [2] is reported as “no conclusion”.
In the case of `NC[C@H](O)CCl`, the mutagenic call was “active; positive” (Species/Cell Type: Rat, Sex: Male, Assay Type: Sperm morphology, Assay Code: SPA+, Evaluation Type: Evaluation A (Pre-1980)) and “inactive; negative” (Species/Cell Type: Rodents, Sex: Male, Assay Type: Dominant lethal test, Assay Code: DLT-, Evaluation Type: Evaluation A (Pre-1980)).
For the compound `Cn1c([N+](=O)[O-])cnc1/C=N/N1CC(CN2CCOCC2)OC1=O` (stereo not drawn), the mutagenic call (Species/Cell Type: Drosophila melanogaster, Assay Type: Sex-linked recessive lethal gene mutation, Assay Code: SRLT, Evaluation Type: Evaluation A (Pre-1980)) is given as “no conclusion”; the mutagenic call (Species/Cell Type: Mouse, Sex: Female, Assay Type: Spot test, gene mutation, Assay Code: MST+, Evaluation Type: Evaluation A (Pre-1980)) is “active; positive”; the mutagenic call (Species/Cell Type: Saccharomyces cerevisiae, Assay Type: Mitotic recombination or gene conversion, Assay Code: YEC-, Evaluation Type: Evaluation A (Pre-1980)) is “inactive; negative”.
As for `CCC(=O)O`, the mutagenic call (Species/Cell Type: Mammalian polychromatic erythrocytes, Assay Type: Micronucleus test, chromosome aberrations, Assay Code: MNT-, Evaluation Type: Evaluation B (Post-1980)) is “inactive; negative”.
`CC(C)Oc1ccccc1OC(=O)N(C)N=O`: the mutagenic call (Species/Cell Type: Bacillus subtilis (H17 vs M45T), Assay Type: Rec-assay, spot test, DNA effects (bacterial DNA repair), Assay Code: REX+, Evaluation Type: Evaluation A (Pre-1980)) was “active; positive”; the mutagenic call (Species/Cell Type: Escherichia coli WP2, Assay Type: Tryptophan reverse gene mutation, Assay Code: WP2+, Evaluation Type: Evaluation A (Pre-1980)) was “active; positive”; the mutagenic call under setting [3] is “active; positive”; the mutagenic call under setting [4] was “active; positive”.
Turning to `O=NN(CCCl)C(=O)NCCCCNC(=O)N(CCCl)N=O`, the mutagenic call by setting is: (Species/Cell Type: Drosophila melanogaster, Assay Type: Sex-linked recessive lethal gene mutation, Assay Code: SRL+, Evaluation Type: Evaluation A (Pre-1980)) “active; positive”; under setting [3], “active; positive”.
On to `CCCN(CCCCO)N=O`, for which the mutagenic call (Species/Cell Type: Salmonella typhimurium (one or more of the five standard strains: TA98, TA100, TA1535, TA1537, and TA1538), Assay Type: Histidine reverse gene mutation, Ames assay, Assay Code: SAL+*, Activation: With metabolic activation, Evaluation Type: Evaluation A (Pre-1980)) is “active; positive”.
Consider `[O][Cl+][O-]`, for which, where the note is “Species/Cell Type: Mammalian polychromatic erythrocytes, Assay Type: Micronucleus test, chromosome aberrations, Assay Code: MNTT, Evaluation Type: Evaluation B (Post-1980)”, the mutagenic call is on record as “no conclusion”.
Consider `CCNCCNc1ccc(CO)c2sc3cc(Cl)ccc3c(=O)c12`, for which the mutagenic call (Species/Cell Type: Mouse lymphoma (L5178Y) cells, Assay Type: Forward gene mutation at the thymidine kinase (TK) locus, chromosome aberrations, Assay Code: L51+, Evaluation Type: Evaluation A (Pre-1980)) is “active; positive”.
For `CCOP(=O)(OCC)Oc1ccc([N+](=O)[O-])cc1`, the mutagenic call under setting [5] is “active; positive”.
`O=Nc1c([O-])ccc2cc(S(=O)(=O)[O-])ccc12.O=Nc1c([O-])ccc2cc(S(=O)(=O)[O-])ccc12.O=Nc1c([O-])ccc2cc(S(=O)(=O)[O-])ccc12.[Fe+3].[Na+].[Na+].[Na+]`: the mutagenic call (Species/Cell Type: Bacillus subtilis (H17 vs M45), Assay Type: Rec-assay, spot test, DNA effects (bacterial DNA repair), Assay Code: REWT, Evaluation Type: Evaluation A (Pre-1980)) was “no conclusion”.
Turning to `Nc1nc(/C=C/c2ccc([N+](=O)[O-])o2)cs1`, under setting [4], the mutagenic call was “active; positive”.
For `N/C(=N\O)c1ccc([N+](=O)[O-])o1`, the mutagenic call is “active; positive” under setting [5] and “active; positive” under setting [4].
As for `CS(=O)(=O)OCCNC[C@@H](O)[C@@H](O)CNCCOS(C)(=O)=O`, the mutagenic call reads like this: (Species/Cell Type: Human lymphocytes, Assay Type: Sister-chromatid exchange (SCE) in vitro, Assay Code: SCL+D, Dose Response: With dose response, Evaluation Type: Evaluation A (Pre-1980)) “active; positive”; (Species/Cell Type: Human, Assay Type: Sister-chromatid exchange (SCE) in vitro, Assay Code: SC1+D, Dose Response: With dose response, Evaluation Type: Evaluation A (Pre-1980)) “active; positive”.
As for `Cc1c(C)c2c(c(C)c1O)CC[C@@](C)(CCC[C@H](C)CCC[C@H](C)CCCC(C)C)O2`, the mutagenic call was “no conclusion” under setting [6] and “no conclusion” (Species/Cell Type: Human, Assay Type: Sister-chromatid exchange (SCE) in vitro, Assay Code: SC1T, Evaluation Type: Evaluation B (Post-1980)).
For `Cc1cccc(O)c1`, the mutagenic call by setting is: (Species/Cell Type: Allium cepa, Assay Type: Chromosome aberrations, Assay Code: ALCT, Evaluation Type: Evaluation A (Pre-1980)) “no conclusion”; under setting [6], “no conclusion”; (Species/Cell Type: Human, Assay Type: Sister-chromatid exchange (SCE) in vitro, Assay Code: SC1+, Evaluation Type: Evaluation B (Post-1980)) “active; positive”; (Species/Cell Type: Nonhuman, Assay Type: Sister-chromatid exchange (SCE) in vivo, Assay Code: SC3T, Evaluation Type: Evaluation B (Post-1980)) “no conclusion”.
Take `Cc1ccc2cc3ccc4c(F)cccc4c3cc2c1`: where the note is “Species/Cell Type: Mouse prostate cells, Assay Type: Cell transformation, Assay Code: CTM+, Evaluation Type: Evaluation A (Pre-1980)”, the mutagenic call was “active; positive”.
As for `CCCCOc1ccc(CC(=O)NN)cc1CN(CC)CC`, under “Species/Cell Type: Saccharomyces cerevisiae, Assay Type: Reverse gene mutation, Assay Code: YERT, Evaluation Type: Evaluation A (Pre-1980)”, the mutagenic call was “no conclusion”.
In the case of `CCC(=O)N(C)N=O`, the mutagenic call (Species/Cell Type: Saccharomyces cerevisiae, Assay Type: Reverse gene mutation, Assay Code: YER+, Evaluation Type: Evaluation A (Pre-1980)) is “active; positive”.
Consider `[N-]=[N+]=O`, for which the mutagenic call under setting [1] was “active; positive”; the mutagenic call (Species/Cell Type: Mouse, Sex: Male, Assay Type: Sperm morphology, Assay Code: SPI-, Evaluation Type: Evaluation A (Pre-1980)) was “inactive; negative”; the mutagenic call (Species/Cell Type: Nonhuman, Assay Type: Sister-chromatid exchange (SCE) in vitro, Assay Code: SC2T, Evaluation Type: Evaluation B (Post-1980)) was “no conclusion”; the mutagenic call (Species/Cell Type: Tradescantia species, Assay Type: Gene mutation, Assay Code: TRM+D, Dose Response: With dose response, Evaluation Type: Evaluation A (Pre-1980)) was “active; positive”. For the same compound, under setting [2], the call is “no conclusion”.
